Key:
[1] = General observations (body weight, litter size, serum testosterone, other tissues); type: in vivo, rat
Protocol: In Vivo Procedures: Gestating outbred Sprague-Dawley and inbred Fisher mother rats from timed, pregnant colonies housed at the Washington State University Vivarium, were given intraperitoneal injections of vinclozolin (100 mg/kg/day) and methoxychlor (200 mg/kg/day) from embryonic day 8-15 (E8-E15, sperm positive vaginal smear date=E0) of gestation (F0 generation) as previously described. Gestating mothers administered vehicle, sesame oil or DMSO, served as controls. At least 6 lines (individual F0 injected females) were generated for controls and treated groups for these analyses. Male rats from control and treated groups were collected at P60-P180 for analyses. F1 treated males were bred to F1 treated females to generate the F2 treated generation and F2 treated males were bred to F2 treated females to generate the F3 generation and the F3 were bred in the same manner to generate the F4 generation. Rats for the control groups were bred in the same manner for all the generations. No inbreeding or sibling crosses were generated. The outcross group (VOC) were generated by breeding the F2 treated males with wild-type females (total of 6 litters) and reverse outcross group (RVOC) was generated by breeding F2 treated females with wild-type males (total of 3 litters). Control (n=4) and treated (n=4) male offspring from the F1 generation from Fisher strain rats were collected at P6 for DNA methylation analysis, see below. All procedures have been approved by the Washington State University Animal Care Committee. The number of animals used for replicates in the experiments (i.e. n value) are as follows for vinclozolin treatment: F1 (control 11, treated 12); F2 (control 19, treated 30); F3 (control 19, treated 26); F4 (control 10, treated 17); VOC (18); and RVOC (6). For methoxychlor treatment animal number was for F1 (control 6, treated 9) and F2 (control 16, treated 22).

F1 generation testis = details: cited from earlier work

With `COc1ccc(C(c2ccc(OC)cc2)C(Cl)(Cl)Cl)cc1` [methoxychlor] the serum testosterone levels ([1]; all the animals) was “normal”, the “effect on total body weight” value ([1]; endocrine disruptor treatment, F1) was “no effect” and the “gross abnormality in any other tissues examined” value ([1]; rat, in vivo) was “No gross abnormality”. The “adult F1 generation testis phenotype” value (F1 generation testis; gestating mother exposed E8-E15, 100 or 200 mg/kg i.p. daily) was “reduced spermatogenic capacity, increased spermatogenic cell apoptosis and decreased sperm number and motility” and the “effect on the F1 generation testis” value (F1 generation testis; transient exposure E15-E20) was “no effect”.

Source: US8586307B2, “Methods for diagnosing epigenetic, transgenerational effects of environmental toxicants on mammalian germ-lines and treating associated diseases” (priority 2005, dated 2013)
